The source made the active and inactive calls. For most assays here, no stated cut-off is given here; in the data, actives have a measured Kd and inactives only a lower limit.
Experiments:
[1] = molecular target: Glycogen synthase kinase-3 beta (Homo sapiens, UniProt P49841)
[2] = molecular target: Calcium/calmodulin-dependent protein kinase kinase 2 (Homo sapiens, UniProt Q96RR4)
[3] = molecular target: Serine/threonine-protein kinase 16 (Homo sapiens, UniProt O75716)
[4] = molecular target: High affinity nerve growth factor receptor (Homo sapiens, UniProt P04629)
Chain of High affinity nerve growth factor receptor (P04629 whole entry): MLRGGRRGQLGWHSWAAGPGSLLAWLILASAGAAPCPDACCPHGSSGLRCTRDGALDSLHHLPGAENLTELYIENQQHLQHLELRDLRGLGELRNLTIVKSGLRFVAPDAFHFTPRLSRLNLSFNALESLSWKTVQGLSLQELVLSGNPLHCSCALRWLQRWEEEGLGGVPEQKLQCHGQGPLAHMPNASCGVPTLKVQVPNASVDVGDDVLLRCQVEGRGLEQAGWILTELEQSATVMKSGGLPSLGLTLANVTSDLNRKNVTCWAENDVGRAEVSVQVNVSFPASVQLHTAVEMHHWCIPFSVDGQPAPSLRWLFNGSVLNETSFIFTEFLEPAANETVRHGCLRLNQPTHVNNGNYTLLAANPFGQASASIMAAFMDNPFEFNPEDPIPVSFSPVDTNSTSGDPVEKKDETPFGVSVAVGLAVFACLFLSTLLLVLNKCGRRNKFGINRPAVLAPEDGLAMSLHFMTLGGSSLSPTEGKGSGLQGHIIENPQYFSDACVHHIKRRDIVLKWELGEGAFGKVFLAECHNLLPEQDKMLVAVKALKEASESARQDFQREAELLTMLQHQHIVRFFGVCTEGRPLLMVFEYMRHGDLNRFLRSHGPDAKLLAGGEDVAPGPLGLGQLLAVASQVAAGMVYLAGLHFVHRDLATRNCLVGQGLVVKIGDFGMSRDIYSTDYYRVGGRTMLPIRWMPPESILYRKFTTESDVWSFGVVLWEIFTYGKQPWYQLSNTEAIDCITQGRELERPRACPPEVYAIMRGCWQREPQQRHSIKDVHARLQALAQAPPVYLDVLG

[5] = molecular target: Mitogen-activated protein kinase kinase kinase 20 (Homo sapiens, UniProt Q9NYL2)
Chain of Mitogen-activated protein kinase kinase kinase 20 (Q9NYL2 whole entry): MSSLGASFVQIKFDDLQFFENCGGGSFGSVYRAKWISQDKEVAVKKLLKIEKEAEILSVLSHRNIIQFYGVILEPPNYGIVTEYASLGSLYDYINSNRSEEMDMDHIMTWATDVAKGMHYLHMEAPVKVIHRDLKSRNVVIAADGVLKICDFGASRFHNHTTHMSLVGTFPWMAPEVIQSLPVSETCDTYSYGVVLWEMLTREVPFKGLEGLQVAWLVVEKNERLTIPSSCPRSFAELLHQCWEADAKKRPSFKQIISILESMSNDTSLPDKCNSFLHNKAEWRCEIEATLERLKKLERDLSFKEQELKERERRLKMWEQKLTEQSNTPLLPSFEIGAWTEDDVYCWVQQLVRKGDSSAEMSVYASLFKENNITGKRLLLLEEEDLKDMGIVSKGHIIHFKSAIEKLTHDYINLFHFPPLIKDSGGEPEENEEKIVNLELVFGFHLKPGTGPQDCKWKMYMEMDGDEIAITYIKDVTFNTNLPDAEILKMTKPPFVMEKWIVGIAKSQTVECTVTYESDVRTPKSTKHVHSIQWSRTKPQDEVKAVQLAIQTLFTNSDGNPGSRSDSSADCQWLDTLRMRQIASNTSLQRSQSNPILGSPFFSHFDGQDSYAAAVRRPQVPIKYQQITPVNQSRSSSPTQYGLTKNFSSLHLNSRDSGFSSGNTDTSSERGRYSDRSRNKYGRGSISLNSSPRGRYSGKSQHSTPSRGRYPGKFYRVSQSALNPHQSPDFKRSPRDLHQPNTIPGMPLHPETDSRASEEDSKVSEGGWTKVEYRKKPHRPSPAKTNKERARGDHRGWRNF

[6] = molecular target: DNA topoisomerase 2-alpha (Homo sapiens, UniProt P11388)
[7] = molecular target: T1, RNA cytidine acetyltransferase (Homo sapiens, UniProt Q9H0A0)
T1 sequence (Q9H0A0 whole entry): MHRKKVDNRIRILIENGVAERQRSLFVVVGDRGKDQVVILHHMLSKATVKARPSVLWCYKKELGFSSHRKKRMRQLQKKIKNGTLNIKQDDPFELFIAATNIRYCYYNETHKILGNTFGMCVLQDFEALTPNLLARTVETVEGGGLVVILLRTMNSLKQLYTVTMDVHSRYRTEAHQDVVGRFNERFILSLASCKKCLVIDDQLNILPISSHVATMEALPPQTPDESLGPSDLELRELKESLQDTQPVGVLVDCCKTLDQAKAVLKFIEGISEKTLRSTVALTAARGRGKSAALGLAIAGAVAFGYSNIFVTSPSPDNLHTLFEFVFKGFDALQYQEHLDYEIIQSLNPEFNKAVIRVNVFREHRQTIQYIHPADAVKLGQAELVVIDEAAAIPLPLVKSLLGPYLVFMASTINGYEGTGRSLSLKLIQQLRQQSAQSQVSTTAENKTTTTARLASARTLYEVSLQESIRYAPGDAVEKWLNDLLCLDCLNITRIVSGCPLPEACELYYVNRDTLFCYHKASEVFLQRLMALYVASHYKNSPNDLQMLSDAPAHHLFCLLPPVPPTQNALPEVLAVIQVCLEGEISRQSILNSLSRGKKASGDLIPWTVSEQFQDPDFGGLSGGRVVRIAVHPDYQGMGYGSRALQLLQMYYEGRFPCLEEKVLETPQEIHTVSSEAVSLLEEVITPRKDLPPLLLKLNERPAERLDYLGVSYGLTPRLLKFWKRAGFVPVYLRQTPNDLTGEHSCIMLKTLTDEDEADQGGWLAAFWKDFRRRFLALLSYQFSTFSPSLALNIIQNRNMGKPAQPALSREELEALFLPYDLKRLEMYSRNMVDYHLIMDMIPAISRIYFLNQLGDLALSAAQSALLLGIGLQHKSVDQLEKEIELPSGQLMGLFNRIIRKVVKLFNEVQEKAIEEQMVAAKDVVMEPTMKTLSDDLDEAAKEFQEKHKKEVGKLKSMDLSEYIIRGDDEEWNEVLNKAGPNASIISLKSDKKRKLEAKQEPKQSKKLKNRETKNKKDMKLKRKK

[8] = molecular target: T2, MAP kinase-activated protein kinase 5 (Homo sapiens, UniProt Q8IW41)
T2 sequence (Q8IW41 whole entry): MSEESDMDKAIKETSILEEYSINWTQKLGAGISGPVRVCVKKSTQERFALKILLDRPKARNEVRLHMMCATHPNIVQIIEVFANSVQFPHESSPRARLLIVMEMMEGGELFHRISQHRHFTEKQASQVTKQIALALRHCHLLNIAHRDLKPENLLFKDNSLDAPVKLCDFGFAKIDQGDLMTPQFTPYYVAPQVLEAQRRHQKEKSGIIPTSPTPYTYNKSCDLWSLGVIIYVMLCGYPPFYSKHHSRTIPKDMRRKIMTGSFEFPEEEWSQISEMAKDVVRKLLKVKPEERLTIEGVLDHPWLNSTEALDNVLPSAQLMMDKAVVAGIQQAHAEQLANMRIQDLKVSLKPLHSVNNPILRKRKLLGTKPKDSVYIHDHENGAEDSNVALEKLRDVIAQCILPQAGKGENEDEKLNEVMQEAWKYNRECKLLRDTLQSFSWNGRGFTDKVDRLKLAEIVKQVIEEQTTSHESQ

[9] = molecular target: T3, Dual specificity mitogen-activated protein kinase kinase 3 (Homo sapiens, UniProt P46734)
T3 sequence (P46734 whole entry): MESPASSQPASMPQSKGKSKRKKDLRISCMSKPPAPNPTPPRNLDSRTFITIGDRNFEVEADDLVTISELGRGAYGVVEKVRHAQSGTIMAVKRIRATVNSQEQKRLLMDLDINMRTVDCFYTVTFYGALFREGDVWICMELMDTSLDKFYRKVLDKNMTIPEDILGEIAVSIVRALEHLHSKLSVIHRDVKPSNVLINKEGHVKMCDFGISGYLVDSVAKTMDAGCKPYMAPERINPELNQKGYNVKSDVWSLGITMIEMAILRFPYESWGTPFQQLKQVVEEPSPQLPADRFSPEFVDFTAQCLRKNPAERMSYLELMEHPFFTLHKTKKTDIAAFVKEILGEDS

[10] = molecular target: Casein kinase I isoform epsilon (Homo sapiens, UniProt P49674)
Chain of Casein kinase I isoform epsilon (P49674 whole entry, canonical isoform): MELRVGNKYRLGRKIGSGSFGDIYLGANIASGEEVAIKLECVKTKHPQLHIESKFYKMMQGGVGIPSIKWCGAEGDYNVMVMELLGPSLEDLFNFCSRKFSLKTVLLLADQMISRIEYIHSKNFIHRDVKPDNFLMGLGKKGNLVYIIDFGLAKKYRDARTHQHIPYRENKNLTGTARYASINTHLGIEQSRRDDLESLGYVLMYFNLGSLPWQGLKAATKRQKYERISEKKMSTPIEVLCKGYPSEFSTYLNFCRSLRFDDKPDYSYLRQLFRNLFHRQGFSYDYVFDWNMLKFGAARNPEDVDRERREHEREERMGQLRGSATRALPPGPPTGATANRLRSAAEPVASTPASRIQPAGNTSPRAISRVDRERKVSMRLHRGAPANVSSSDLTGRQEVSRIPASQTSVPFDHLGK

[11] = molecular target: Serine/threonine-protein kinase SIK2 (Homo sapiens, UniProt Q9H0K1)
[12] = molecular target: T4, Heme oxygenase 2 (Homo sapiens, UniProt P30519)
T4 sequence (P30519 whole entry): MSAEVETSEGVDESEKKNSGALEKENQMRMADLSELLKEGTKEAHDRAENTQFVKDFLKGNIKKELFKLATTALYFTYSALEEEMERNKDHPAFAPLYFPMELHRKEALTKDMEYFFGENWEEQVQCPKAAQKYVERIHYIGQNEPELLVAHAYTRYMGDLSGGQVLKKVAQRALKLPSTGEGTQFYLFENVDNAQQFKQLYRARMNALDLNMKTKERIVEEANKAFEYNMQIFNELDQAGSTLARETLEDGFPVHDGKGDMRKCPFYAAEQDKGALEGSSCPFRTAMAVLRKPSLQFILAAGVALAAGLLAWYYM

[13] = molecular target: Eukaryotic translation initiation factor 2-alpha kinase 1 (Homo sapiens, UniProt Q9BQI3)
Chain of Eukaryotic translation initiation factor 2-alpha kinase 1 (Q9BQI3 whole entry): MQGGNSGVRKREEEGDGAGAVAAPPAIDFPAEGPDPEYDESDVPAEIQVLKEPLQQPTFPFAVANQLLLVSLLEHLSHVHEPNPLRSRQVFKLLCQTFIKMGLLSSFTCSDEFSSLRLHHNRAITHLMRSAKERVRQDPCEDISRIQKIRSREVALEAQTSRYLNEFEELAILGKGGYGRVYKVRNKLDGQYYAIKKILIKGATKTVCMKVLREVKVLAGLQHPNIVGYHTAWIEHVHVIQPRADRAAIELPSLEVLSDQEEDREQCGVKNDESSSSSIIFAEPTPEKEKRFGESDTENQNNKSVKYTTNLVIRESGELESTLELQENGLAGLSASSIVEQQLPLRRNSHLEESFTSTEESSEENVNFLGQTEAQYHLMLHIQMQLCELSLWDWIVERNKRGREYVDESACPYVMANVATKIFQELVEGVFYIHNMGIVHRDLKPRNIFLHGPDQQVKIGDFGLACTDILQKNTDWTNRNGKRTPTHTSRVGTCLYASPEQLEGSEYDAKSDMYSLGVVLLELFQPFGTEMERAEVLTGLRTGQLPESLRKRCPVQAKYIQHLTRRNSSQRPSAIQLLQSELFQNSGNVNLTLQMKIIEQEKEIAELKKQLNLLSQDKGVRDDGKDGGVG

[14] = molecular target: Cyclin-dependent kinase 1 (Homo sapiens, UniProt P06493)
Chain of Cyclin-dependent kinase 1 (P06493 whole entry): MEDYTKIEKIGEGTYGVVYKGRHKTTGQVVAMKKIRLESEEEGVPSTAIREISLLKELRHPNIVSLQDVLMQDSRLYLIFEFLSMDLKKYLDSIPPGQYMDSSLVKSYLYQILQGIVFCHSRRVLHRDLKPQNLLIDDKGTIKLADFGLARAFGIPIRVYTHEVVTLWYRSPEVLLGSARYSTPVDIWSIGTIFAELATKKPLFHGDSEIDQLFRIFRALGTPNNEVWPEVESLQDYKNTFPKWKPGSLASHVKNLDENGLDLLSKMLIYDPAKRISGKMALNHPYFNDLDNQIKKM

Chain of Glycogen synthase kinase-3 beta (P49841 whole entry): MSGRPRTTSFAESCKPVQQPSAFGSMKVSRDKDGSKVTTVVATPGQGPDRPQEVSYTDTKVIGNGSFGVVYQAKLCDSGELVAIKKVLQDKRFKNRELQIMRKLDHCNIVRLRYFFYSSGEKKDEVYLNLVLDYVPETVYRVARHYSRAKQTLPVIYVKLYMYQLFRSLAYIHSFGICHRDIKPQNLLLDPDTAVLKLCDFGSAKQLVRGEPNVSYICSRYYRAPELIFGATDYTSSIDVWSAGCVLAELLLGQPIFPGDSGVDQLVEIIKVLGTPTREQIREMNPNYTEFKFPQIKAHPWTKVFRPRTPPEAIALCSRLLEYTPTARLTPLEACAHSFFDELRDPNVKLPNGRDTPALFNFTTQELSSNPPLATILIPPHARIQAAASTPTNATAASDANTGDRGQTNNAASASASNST
Chain of Calcium/calmodulin-dependent protein kinase kinase 2 (Q96RR4 whole entry): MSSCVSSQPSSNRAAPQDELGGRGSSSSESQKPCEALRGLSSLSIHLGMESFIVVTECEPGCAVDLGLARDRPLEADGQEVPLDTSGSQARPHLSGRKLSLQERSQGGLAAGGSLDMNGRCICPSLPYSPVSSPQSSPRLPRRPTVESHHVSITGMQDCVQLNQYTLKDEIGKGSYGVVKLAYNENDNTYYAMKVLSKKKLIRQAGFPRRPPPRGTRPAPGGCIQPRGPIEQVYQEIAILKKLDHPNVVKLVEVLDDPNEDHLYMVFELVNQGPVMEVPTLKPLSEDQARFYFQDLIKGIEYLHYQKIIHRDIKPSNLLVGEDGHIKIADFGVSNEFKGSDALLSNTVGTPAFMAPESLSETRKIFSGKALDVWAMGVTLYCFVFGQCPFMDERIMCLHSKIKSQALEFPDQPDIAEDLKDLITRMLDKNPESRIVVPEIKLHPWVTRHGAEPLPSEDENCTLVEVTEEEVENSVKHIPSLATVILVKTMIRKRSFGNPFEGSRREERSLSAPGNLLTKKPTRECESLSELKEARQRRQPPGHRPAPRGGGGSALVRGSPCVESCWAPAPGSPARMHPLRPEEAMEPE
Chain of Serine/threonine-protein kinase 16 (O75716 whole entry): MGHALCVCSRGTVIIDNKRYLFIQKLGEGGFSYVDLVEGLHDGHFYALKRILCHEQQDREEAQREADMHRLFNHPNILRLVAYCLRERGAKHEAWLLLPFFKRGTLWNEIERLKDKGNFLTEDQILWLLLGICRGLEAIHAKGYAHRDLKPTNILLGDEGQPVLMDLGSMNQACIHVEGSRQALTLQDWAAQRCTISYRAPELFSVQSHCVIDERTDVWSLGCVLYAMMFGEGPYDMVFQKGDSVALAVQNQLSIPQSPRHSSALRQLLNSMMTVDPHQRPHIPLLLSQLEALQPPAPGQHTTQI

Compound | Kd [1] | Kd [2] | Kd [3] | Kd [4] | Kd [5] | Kd [6] | Kd [7] | Kd [8] | Kd [9] | Kd [10] | Kd [11] | Kd [12] | Kd [13] | Kd [14]
C[C@@H](Oc1cc(C(=O)Nc2ccc(C(=O)N3CCN(C)CC3)cc2)nnc1N)c1c(Cl)ccc(F)c1Cl | > 30 µM (inactive) | > 30 µM (inactive) | > 30 µM (inactive) | > 30 µM (inactive) | > 30 µM (inactive) | > 30 µM (inactive) | > 30 µM (inactive) | > 30 µM (inactive) | > 30 µM (inactive) | > 30 µM (inactive) | > 30 µM (inactive) | > 30 µM (inactive) | > 30 µM (inactive) | > 30 µM (inactive)
C=CC(=O)N1CCC[C@H](n2c(=O)n(-c3ccc(Oc4ccccc4)cc3)c3c(N)ncnc32)C1 | > 30 µM (inactive) | > 30 µM (inactive) | > 30 µM (inactive) | > 30 µM (inactive) | > 30 µM (inactive) | > 30 µM (inactive) | > 30 µM (inactive) | > 30 µM (inactive) | > 30 µM (inactive) | > 30 µM (inactive) | > 30 µM (inactive) | > 30 µM (inactive) | > 30 µM (inactive) | > 30 µM (inactive)
COCc1c(-c2ccc(NC(=O)Nc3cc(C(F)(F)F)ccc3F)c(F)c2)c2c(N)ncnn2c1CN1CCOCC1 | > 30 µM (inactive) | > 30 µM (inactive) | > 30 µM (inactive) | > 30 µM (inactive) | > 30 µM (inactive) | > 30 µM (inactive) | > 30 µM (inactive) | > 30 µM (inactive) | > 30 µM (inactive) | > 30 µM (inactive) | > 30 µM (inactive) | > 30 µM (inactive) | > 30 µM (inactive) | > 30 µM (inactive)
Nc1ncnc2c1c(-c1cccc(OCc3ccccc3)c1)cn2[C@H]1C[C@@H](CN2CCC2)C1 [AEW-541] | > 30 µM (inactive) | > 30 µM (inactive) | > 30 µM (inactive) | > 30 µM (inactive) | > 30 µM (inactive) | > 30 µM (inactive) | > 30 µM (inactive) | > 30 µM (inactive) | > 30 µM (inactive) | 60.5 µM (active) | > 30 µM (inactive) | > 30 µM (inactive) | > 30 µM (inactive) | > 30 µM (inactive)
Cc1csc(-c2nnc(Nc3ccc(Oc4ncccc4-c4ccnc(N)n4)cc3)c3ccccc23)c1 [AMG-900] | > 30 µM (inactive) | > 30 µM (inactive) | > 30 µM (inactive) | > 30 µM (inactive) | > 30 µM (inactive) | > 30 µM (inactive) | > 30 µM (inactive) | > 30 µM (inactive) | > 30 µM (inactive) | > 30 µM (inactive) | > 30 µM (inactive) | > 30 µM (inactive) | > 30 µM (inactive) | > 30 µM (inactive)
O=C(Nc1c[nH]nc1-c1nc2cc(CN3CCOCC3)ccc2[nH]1)NC1CC1 [AT-9283] | 0.007 µM (active) | > 30 µM (inactive) | 1.28 µM (active) | > 30 µM (inactive) | > 30 µM (inactive) | > 30 µM (inactive) | > 30 µM (inactive) | 0.589 µM (active) | > 30 µM (inactive) | > 30 µM (inactive) | 0.03 µM (active) | > 30 µM (inactive) | > 30 µM (inactive) | > 30 µM (inactive)
C=CC(=O)Nc1cc2c(Nc3ccc(F)c(Cl)c3)ncnc2cc1C#CC(C)(C)N1CCN(C)CC1 [AV-412 FREE BASE] | > 30 µM (inactive) | > 30 µM (inactive) | > 30 µM (inactive) | > 30 µM (inactive) | > 30 µM (inactive) | > 30 µM (inactive) | > 30 µM (inactive) | > 30 µM (inactive) | > 30 µM (inactive) | > 30 µM (inactive) | > 30 µM (inactive) | > 30 µM (inactive) | > 30 µM (inactive) | > 30 µM (inactive)
COc1cc([C@@H]2c3cc4c(cc3[C@H](O)[C@H]3COC(=O)[C@@H]23)OCO4)cc(OC)c1OC [AXL-1717] | > 30 µM (inactive) | > 30 µM (inactive) | > 30 µM (inactive) | > 30 µM (inactive) | > 30 µM (inactive) | 0.486 µM | > 30 µM (inactive) | > 30 µM (inactive) | > 30 µM (inactive) | > 30 µM (inactive) | > 30 µM (inactive) | > 30 µM (inactive) | > 30 µM (inactive) | > 30 µM (inactive)
Cc1nc2cc(-n3ncc(C(=O)c4cc5ccccc5[nH]4)c3N)ccc2[nH]1 [FGFR INHIBITOR DEBIO 1347] | > 30 µM (inactive) | > 30 µM (inactive) | > 30 µM (inactive) | > 30 µM (inactive) | > 30 µM (inactive) | > 30 µM (inactive) | > 30 µM (inactive) | > 30 µM (inactive) | > 30 µM (inactive) | > 30 µM (inactive) | > 30 µM (inactive) | – | > 30 µM (inactive) | > 30 µM (inactive)
NC1(c2ccc(-c3nc4ccn5c(=O)[nH]nc5c4cc3-c3ccccc3)cc2)CCC1 [MK-2206] | > 30 µM (inactive) | > 30 µM (inactive) | > 30 µM (inactive) | > 30 µM (inactive) | > 30 µM (inactive) | > 30 µM (inactive) | > 30 µM (inactive) | > 30 µM (inactive) | > 30 µM (inactive) | > 30 µM (inactive) | > 30 µM (inactive) | – | > 30 µM (inactive) | > 30 µM (inactive)
Cn1ncc(Cl)c1-c1cc(C(=O)N[C@H](CN)Cc2ccc(F)c(F)c2)oc1Cl [UPROSERTIB] | > 30 µM (inactive) | > 30 µM (inactive) | > 30 µM (inactive) | > 30 µM (inactive) | > 30 µM (inactive) | > 30 µM (inactive) | > 30 µM (inactive) | > 30 µM (inactive) | > 30 µM (inactive) | > 30 µM (inactive) | > 30 µM (inactive) | – | > 30 µM (inactive) | > 30 µM (inactive)

From ChEMBL document CHEMBL3991601, “The target landscape of clinical kinase drugs” (Science, 2017)
